Measured values as given in patent publication US11214538B2, “Farnesoid X receptor agonists and uses thereof” (Metacrine, Inc., priority 2015, dated 2022).

Key:
hFXR [1] = target: T1, hFXR (Homo sapiens, UniProt Q96RI1); experiment: In Vitro FXR Assay (PGL3), luciferase reporter in transfected CV-1 cells; assay type: cell-based; conditions: CV-1 cells transfected with hFXR, hRXR, PGL3-ECRE*6-luc; 18 hrs incubation; luminescence
T1 construct: expressed in transfected cells; host or cells: CV-1 cells
T1 sequence (Q96RI1 1-486): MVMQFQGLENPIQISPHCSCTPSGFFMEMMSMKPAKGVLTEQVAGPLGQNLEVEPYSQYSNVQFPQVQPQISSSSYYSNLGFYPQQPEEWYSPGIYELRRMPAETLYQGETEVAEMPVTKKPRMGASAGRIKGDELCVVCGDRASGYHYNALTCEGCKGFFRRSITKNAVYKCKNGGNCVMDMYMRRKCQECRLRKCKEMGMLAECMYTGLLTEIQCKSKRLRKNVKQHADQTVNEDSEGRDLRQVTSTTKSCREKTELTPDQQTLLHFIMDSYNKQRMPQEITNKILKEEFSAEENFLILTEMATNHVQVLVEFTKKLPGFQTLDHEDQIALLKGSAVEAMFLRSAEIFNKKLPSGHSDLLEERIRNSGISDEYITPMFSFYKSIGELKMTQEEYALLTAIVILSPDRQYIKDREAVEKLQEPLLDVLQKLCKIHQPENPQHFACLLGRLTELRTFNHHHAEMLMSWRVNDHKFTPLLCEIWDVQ
T1 sequence (P19793 1-462 partner): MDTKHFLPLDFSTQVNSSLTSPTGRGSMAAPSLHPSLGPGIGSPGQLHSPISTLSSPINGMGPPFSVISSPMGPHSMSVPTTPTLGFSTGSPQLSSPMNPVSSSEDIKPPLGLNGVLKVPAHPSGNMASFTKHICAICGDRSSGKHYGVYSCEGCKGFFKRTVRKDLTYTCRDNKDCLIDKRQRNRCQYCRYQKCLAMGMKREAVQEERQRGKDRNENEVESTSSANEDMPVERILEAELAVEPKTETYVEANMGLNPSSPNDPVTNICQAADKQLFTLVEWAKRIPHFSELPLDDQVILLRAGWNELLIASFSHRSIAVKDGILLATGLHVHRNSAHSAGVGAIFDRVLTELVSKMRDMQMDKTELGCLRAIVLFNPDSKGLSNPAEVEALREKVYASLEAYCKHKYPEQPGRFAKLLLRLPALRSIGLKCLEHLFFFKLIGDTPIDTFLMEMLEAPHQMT
Experimental: Example B-1: In Vitro FXR Assay (PGL3)
CV-1 cells were seeded at a density of 2,000,000 cells in a T175 flask with DMEM+10% charcoal double-stripped FBS and incubated at 37° C. in a 5% CO2 for 18 h (O/N).
After 18 h of incubation, the medium in the T175 flask was changed with fresh DMEM+10% charcoal super-stripped serum.
To prepare the transfection reaction mixture, the transfection reagent (X-tremeGENE HP from Roche, Cat #06 366 236 001) was added in to a 1.5 mL microcentrifuge tube labelled “A” at a ratio of 1:3 (DNA in g: transfection reagent in μL). OptiMEM medium (Life Technologies, Cat #31985-062) was added accordingly to provide a total volume of 1 mL. The transfection reaction mixture was then briefly vortexed and incubated at room temperature for 5 minutes.
In a separate 1.5 mL microcentrifuge tube labelled “B”, 100 μL OptiMEM and plasmids XPD90Gal pCMXhFXRfl, pCMXhRXRfl+PGL3-ECRE*6-luc+CMX-YFP in the ratio 2 g: 2 g:18 g:3 g were added. This microcentrifuge tube “B” was then briefly vortexed and incubated at room temperature for 5 minutes.
The total volume in tube labelled “A” was then transferred in to tube labelled “B.” The mixture was then briefly vortexed and the transfection:DNA complex was then incubated for about 15-20 minutes at room temperature.
Following incubation, the transfection reagent/DNA mixture complex was then added to cells in the T175 flask and the cells were incubated at […] (O/N) at 37° C. in 5% CO2.
In a 96 well plate, a half logarithmic serial dilution was prepared. OptiMEM was used as the diluent. Using any of one of the compounds described herein, a compound stock solution of 10 mM was prepared. An initial 1:100 dilution was made into the first well for a final concentration of 100 μM. The final concentrations in the 96-well plate was prepared by using a multichannel pipette to transfer 5 μL of the diluted compound to 384-well plate in quadruplicate.
Cells in T175 flask were trypsinized and cells were resuspending in 40 mL phenol red free DMEM+10% charcoal super-stripped FBS. Typically, one T175 flask was sufficient to seed two 384 well plates. CV-1 cells were seeded at 45 μL cell suspension/well using a multichannel pipet or a 384 multidrop dispenser. The cells were then incubated for 18 hrs, overnight.
After removing the plates from the incubator, the medium was flicked out of plate and 384 well plate was turned upside down onto paper towel. The remaining medium was gently tapped out. 15 μL lysis buffer was then added to each well using a multichannel pipet or a 384 well multi-drop dispenser. After incubation for 10 minutes at room temperature on shaker, 30 μL Luciferase buffer was added to each well. Luminescence counts were taken immediately using the Perkin Elmer Envision.
The ability of the compounds disclosed herein to […] FXR activity was quantified and the respective EC50 value was determined. Fex=fexaramine.

hFXR [2] = target: T1, hFXR; experiment: In Vitro FXR Assay (TK), luciferase reporter in transfected CV-1 cells; assay type: cell-based; conditions: CV-1 cells transfected with hFXR, hRXR, TK-ECRE-luc; 18 hrs incubation; luminescence; compounds with a maximum efficacy of <25% of the Fexaramine control classified as '+'
Experimental: Example B-2: In Vitro FXR Assay (TK)
CV-1 cells were seeded at a density of 2,000,000 cells in a T175 flask with DMEM+10% charcoal double-stripped FBS and incubated at 37° C. in 5% CO2 for 18 h (O/N).
After 18 h of incubation, the medium in the T175 flask was changed with fresh DMEM+10% charcoal super-stripped serum. In a polypropylene tube, 2500 μL OptiMEM (Life Technologies, Cat #31985-062) was combined with expression plasmids for hFXR, hRXR, TK-ECRE-luc and pCMX-YFP. The tube was then briefly vortexed and incubated at room temperature for 5 minutes. Transfection reagent (X-tremeGENE HP from Roche, Cat #06 366 236 001) was added to the OptiMEM/plasmid mixture vortexed and incubated at room temperature for 20 minutes. Following incubation, the transfection reagent/DNA mixture complex was added to cells in the T175 flask and the cells were incubated at 37° C. in 5% CO2 for 18 h (O/N).
Compounds were serially diluted in DMSO and added to transfected CV-1 cells. The cells were then incubated for 18 hrs. The next day cells were lysed and examined for luminescence.

| Cmpd/Fex (ratio of the EC50 for the test compound relative to the EC50 of the Fexaramine control) (hFXR [1]) | EC50 (hFXR [2]) | SMILES |
| --- | --- | --- |
| ++ (‘++’ means Cmpd/Fex >10 & <100) | ≤ 3 µM | COC(=O)CNc1cccc(N(Cc2ccc(-c3ccc(N(C)C)cc3)cc2)C(=O)C2CCCCC2)c1 [Compound 9, Methyl 2-((3-(N-((4′-(dimethylamino)-[1,1′-biphenyl]-4-yl)methyl)cyclohexanecarboxamido)phenyl)amino)acetate] |
| +++ (‘+++’ means Cmpd/Fex <10) | ≤ 3 µM | COc1cncc(-c2cccc(N(Cc3ccc(-c4ccc(N(C)C)cc4)cc3)C(=O)C3CCCCC3)c2)c1 [Compound 1, N-((4′-(Dimethylamino)-[1,1′-biphenyl]-4-yl)methyl)-N-(3-(5-methoxypyridin-3-yl)phenyl)cyclohexanecarboxamide] |
| +++ (‘+++’ means Cmpd/Fex <10) | 3 to 10 µM | COCCNc1cccc(N(Cc2ccc(-c3ccc(N(C)C)cc3)cc2)C(=O)C2CCCCC2)c1 [Compound 4, N-((4′-(dimethylamino)-[1,1′-biphenyl]-4-yl)methyl)-N-(3-((2-methoxyethyl)amino)phenyl)cyclohexanecarboxamide] |
| + (‘+’ means Cmpd/Fex >100) | 3 to 10 µM | CN(C)c1ccc(-c2ccc(CN(C(=O)C3CCCCC3)c3cccc(-c4ccccc4)c3)cc2)cc1 [Compound 18, N-([1,1′-Biphenyl]-3-yl)-N-((4′-(dimethylamino)-[1,1′-biphenyl]-4-yl)methyl)cyclohexanecarboxamide] |
